Data as given in patent US20190125790A1, “USE OF HYPOCHLOROUS ACID AS A TOPICAL ANTIMICROBIAL” (BIIOSMART TECHNOLOGIES LLC, priority 2016, published 2019).

Tests used:
[1] = system: Staphylococcus epidermidis; test: Antimicrobial efficacy of HOCl skin cleanser (Table 1); format: cell-based; conditions: 0.01% HOCl; 30 seconds
[2] = system: Enterococcus faecalis; test: as above; format: cell-based; conditions: 0.01% HOCl; 30 seconds
[3] = system: Salmonella enteritidis; test: as above; format: cell-based; conditions: 0.01% HOCl; 30 seconds
[4] = system: Escherichia coli; test: as above; format: cell-based; conditions: 0.01% HOCl; 30 seconds
[5] = system: Pseudomona aeruginosa; test: as above; format: cell-based; conditions: 0.01% HOCl; 30 seconds
[6] = system: Enterobacter cloacae; test: as above; format: cell-based; conditions: 0.01% HOCl; 30 seconds
[7] = system: Bovine Diarrhea virus; test: Efficacy at 30 seconds (Table 2); format: cell-based; conditions: 0.01 to 0.05% aqueous solution
[8] = system: MRSA; test: Efficacy at 30 seconds (Table 2); format: cell-based, methicillin-resistant staphylococcus aureus; conditions: 0.01 to 0.05% aqueous solution
[9] = system: E. coli NDM-1; test: Efficacy at 30 seconds (Table 2); format: cell-based; conditions: 0.01 to 0.05% aqueous solution
[10] = system: S. pyogenes; test: Efficacy at 30 seconds (Table 2); format: cell-based; conditions: 0.01 to 0.05% aqueous solution
[11] = system: A. baumanii; test: ASTM E2315 Time Kill Assay for Antimicrobial Agents; format: cell-based; conditions: 0.046% HOCl aqueous solution; 30 seconds; high organic load
Description: (§1) Table 3. below represents the efficacy of 0.046% aqueous hypochlorous acid solution in the presence of high organic load. ASTM E2315 Time Kill Assay for Antimicrobial Agents. The study was performed in ATS labs in Minnesota recommended by the U.S. FDA's Tentative Final Monograph for OTC Healthcare Antiseptic Drug. […] Additional times were evaluated: 1 minute, 5 minutes, and 10 minutes, all with and without organic soil (Using 10% whole milk and 5% Fetal Bovine Serum). The trend in the efficiency is maintained under the same proportions.

[12] = system: Candida albicans; test: as above; format: cell-based; conditions: 0.046% HOCl aqueous solution; 30 seconds; high organic load
Description: as §1

[13] = system: E. faecium; test: as above; format: cell-based; conditions: 0.046% HOCl aqueous solution; 30 seconds; high organic load
Description: as §1

[14] = system: Enterobacter aerogenes; test: as above; format: cell-based; conditions: 0.046% HOCl aqueous solution; 30 seconds; high organic load
Description: as §1

[15] = system: Haemophilus influenzae; test: as above; format: cell-based; conditions: 0.046% HOCl aqueous solution; 30 seconds; high organic load
Description: as §1

[16] = system: K. oxytoca; test: as above; format: cell-based; conditions: 0.046% HOCl aqueous solution; 30 seconds; high organic load
Description: as §1

[17] = system: K. pneumoniae NDM-1; test: as above; format: cell-based; conditions: 0.046% HOCl aqueous solution; 30 seconds; high organic load
Description: as §1

[18] = system: P. mirabilis; test: as above; format: cell-based; conditions: 0.046% HOCl aqueous solution; 30 seconds; high organic load
Description: as §1

[19] = system: Herpes Simplex Virus type 2 (HSV-2); test: Test of viral inactivation, ASTM E1052-96 viruses in suspension; format: cell-based; conditions: 0.04% HOCl aqueous solution; 30 seconds
[20] = system: Vesicular Stomatitis Virus (VSV); format: cell-based; conditions: 0.04% HOCl aqueous solution; 30 seconds
[21] = system: Enterovirus-71 (EV-71); test: Test of viral inactivation, ASTM E1052-96 viruses in suspension; format: cell-based; conditions: 0.04% HOCl aqueous solution; 30 seconds
[22] = Acute Oral Toxicity; conditions: both sexes, rat, in vivo, 5000 mg/Kg, Wistar Rats, 0.05% concentration HOCl aqueous solutions, males and females, read-out: acute median lethal dose LD50
Text: (§2) Table 5. contains the results of several acute and sub-chronic toxicity tests.

[23] = Acute Dermal Toxicity; format: in vivo; conditions: Albino New Zealand Rabbits, 0.05% HOCl solution, males and females
Text: as §2

[24] = USP <51> Antimicrobial Effectiveness Testing; format: cell-based; conditions: 0.05% HOCl aqueous solution
Text: A 0.05% HOCl aqueous solution is intended for the cleansing and removal of the most common bacteria and viruses associated with skin-to-skin sexually transmitted diseases (pre and post sexual activity) to promote general sexual hygiene.

[25] = Controlled randomized single blind clinical trial in surgical open wounds; format: in vivo, human
Description: The biocompatibility of the 0.046% HOCl concentration aqueous solution was tested in a three way controlled and randomized single blind clinical trial. Patients were randomized into three groups (60 patients per group). The antiseptic efficacy and biocompatibility of the test solution vs. povidone-iodine vs. chlorhexidine (Chlorhexidine Gluconate—CHG) in surgical—clean and clean contaminated—open wounds was evaluated in 180 patients admitted to the surgical facilities of Erasmo Meoz Hospital in Cucuta, Colombia.

[26] = Randomized double blind placebo controlled trial as sexual cleanser; format: in vivo, human; conditions: six months
Text: The purpose of this study was to evaluate the real world use and effect of the solution in a group of 47 willing participants located in Cartagena, Colombia. These willing participants were all active sex workers, whom on a weekly basis, were actively engaged in sexual intercourse with the general public. This demographic was selected as a “high risk” group of individuals that frequently encounter many forms of sexually transmitted infections. Throughout the study, the “HOCl test” group was compared with the “placebo” group in an effort to gauge the efficacy of prevention and treatment for contact-to-contact sexually transmitted infections as well as common infections related to sex. […] The patients were required to complete extensive evaluations regarding their sexual health and lifestyles. The duration of the study was six months.

[27] = system: host cells; conditions: 0.04% HOCl aqueous solution
[28] = HOCl (0.046%) test group, 24 patients

SMILES: OCl [HOCl, hypochlorous acid]
- % Reduction [1]: 99.999%
- Log Reduction [1]: >5.8 Log10
- % Reduction [2]: 99.999%
- Log Reduction [2]: >6.5 Log10
- % Reduction [3]: 99.999%
- Log Reduction [3]: >6.4 Log10
- % Reduction [4]: 99.99%
- Log Reduction [4]: >6.59 Log10
- % Reduction [5]: 99.99%
- Log Reduction [5]: >5.94 Log10
- % Reduction [6]: 99.99%
- Log Reduction [6]: >5.76 Log10
- % Reduction [7]: 99.999%
- Log Reduction [7]: >5.35 Log10
- % Reduction [8]: 99.999%
- Log Reduction [8]: >5.89 Log10
- % Reduction [9]: 99.999%
- Log Reduction [9]: >5.47 Log10
- % Reduction [10]: >99.99%
- Log Reduction [10]: >4.97Log10
- % Reduction [11]: 99.999%
- Log Reduction [11]: >6.15 Log10
- % Reduction [12]: 99.999%
- Log Reduction [12]: >5.19 Log10
- % Reduction [13]: 99.999%
- Log Reduction [13]: >5.32 Log10
- % Reduction [14]: 99.999%
- Log Reduction [14]: >5.90 Log10
- % Reduction [15]: >99.99%
- Log Reduction [15]: >4.81 Log10
- % Reduction [16]: 99.999%
- Log Reduction [16]: >5.50 Log10
- % Reduction [17]: 99.999%
- Log Reduction [17]: >5.59 Log10
- % Reduction [18]: 99.999%
- Log Reduction [18]: >5.65 Log10
- % Reduction [19]: 99.9999%
- Log Reduction [19]: 7.53
- % Reduction [20]: 99.9999%
- Log Reduction [20]: 7.66
- % Reduction [21]: 99.998%
- Log Reduction [21]: 4.83
- LD50 [22]: > 5000 mg/kg
- Acute Lethal Dose [23]: > 5000 mg/kg body weight for males
- USP <51> Antimicrobial Effectiveness Testing outcome [24]: meets all requirements of USP <51> Antimicrobial Effectiveness Testing
- infected patients ([25]; 0.046% HOCl aqueous solution, 60 patients per group, surgical open wounds): no infected patients
- wound appearance (biocompatibility) ([25]; human, in vivo): define edges, good color and hydrated wound beds
- rashes from irritation [26, 28]: two
- rashes from irritation, increase [26, 28]: 8.3%
- total infections [26, 28]: three
- total infections, increase [26, 28]: 13.5%
- urinary tract infection [26, 28]: one
- urinary tract infection, increase [26, 28]: 4.2%
- yeast infections [26, 28]: zero
- reported contact-to-contact STIs ([26]; HOCl (0.046%) test group, 24 patients, 85% confidence level): zero
- change of the pH of the vagina ([26]; all 47 patients): No significant change
- adverse effects to the host cells [27]: no adverse effects to the host cells
